Experimental data from patent US20260226086A1, “COMPOUNDS AND COMPOSITIONS AS STAT3 DEGRADERS AND USES THEREOF” (REGENTS OF THE UNIVERSITY OF MICHIGAN, priority 2023, published 2026).
pIC50: −log10 of the molar value.

Assays:
Type in all cases: cell-based
STAT3 = target: T1, STAT3 (Homo sapiens, UniProt P40763); assay: HiBiT assay, STAT3 degradation in STAT3-HiBiT KI HeLa cells; conditions: 24 h, read-out: STAT3 Degradation (HeLa 24 h HiBit) DC50
T1 construct: This cell line is a clone created by using CRISPR-Cas9 to fuse HiBiT to the 3′ end of STAT3 in HeLa cells; host or cells: STAT3-HiBiT KI HeLa cell line (CRISPR-Cas9 knock-in clone)
T1 sequence (P40763 whole entry): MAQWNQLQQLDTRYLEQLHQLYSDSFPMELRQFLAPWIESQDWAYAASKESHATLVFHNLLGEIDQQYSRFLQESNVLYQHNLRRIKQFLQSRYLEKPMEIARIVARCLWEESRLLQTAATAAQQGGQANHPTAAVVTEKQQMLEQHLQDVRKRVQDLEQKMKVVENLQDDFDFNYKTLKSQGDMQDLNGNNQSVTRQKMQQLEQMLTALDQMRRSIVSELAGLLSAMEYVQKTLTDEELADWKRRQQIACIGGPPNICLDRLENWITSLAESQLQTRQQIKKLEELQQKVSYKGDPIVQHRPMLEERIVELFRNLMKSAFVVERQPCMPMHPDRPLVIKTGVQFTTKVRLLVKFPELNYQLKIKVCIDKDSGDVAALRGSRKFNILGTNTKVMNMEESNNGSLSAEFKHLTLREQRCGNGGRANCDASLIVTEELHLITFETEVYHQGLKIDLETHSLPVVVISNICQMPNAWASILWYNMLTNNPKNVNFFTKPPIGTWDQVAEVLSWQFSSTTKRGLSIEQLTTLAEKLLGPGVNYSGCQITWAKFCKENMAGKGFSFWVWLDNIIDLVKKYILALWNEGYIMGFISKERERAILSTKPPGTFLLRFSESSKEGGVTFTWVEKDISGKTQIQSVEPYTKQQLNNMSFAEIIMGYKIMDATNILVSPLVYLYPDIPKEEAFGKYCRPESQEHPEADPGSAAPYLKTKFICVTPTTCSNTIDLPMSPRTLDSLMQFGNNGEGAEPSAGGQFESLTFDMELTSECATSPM
Outline: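 HeLa cells with CRISPR knock-in of HiBiT at the STAT3 C-terminus, 20000 cells/well, treated with serial compound dilutions for 24 h at 37 °C, 5% CO2. Remaining STAT3 read by Nano-Glo HiBiT lytic luminescence versus untreated cells; IC50 from four-parameter nonlinear fit of triplicate means.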

SU-DHL-1 cells = assay: CellTiter-Glo 2.0 cell viability assay, SU-DHL-1; conditions: Homo sapiens, 96 h, 4 days
Outline: (§1)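 1000 cells per well exposed to serially diluted compounds for 4 days at 37 °C, 5% CO2. Viability measured by CellTiter-Glo 2.0 luminescence versus untreated cells; IC50 from four-parameter nonlinear fit of triplicate means.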

SUP-M2 cells = assay: CellTiter-Glo 2.0 cell viability assay, SUP-M2; conditions: SUP-M2, 96 h, 4 days
Outline: as §1

Cc1ncsc1-c1ccc([C@H](C)NC(=O)[C@@H]2C[C@@H](O)CN2C(=O)[C@@H](n2cc(CCCCCCCCC(=O)N3CC[C@H]4CC[C@@H](C(=O)N[C@@H](CCC(N)=O)C(=O)NC(c5ccccc5)c5ccccc5)N4C(=O)[C@@H](NC(=O)c4cc5cc(C(=O)P(=O)(O)O)ccc5[nH]4)C3)nn2)C(C)(C)C)cc1 [Compound 61, (2-(((5S,8S,10aR)-8-(((S)-5-amino-1-(benzhydrylamino)-1,5-dioxopentan-2-yl)carbamoyl)-3-(9-(1-((S)-1-((2S,4R)-4-hydroxy-2-(((S)-1-(4-(4-methylthiazol-5-yl)phenyl)ethyl)carbamoyl)pyrrolidin-1-yl)-3,3-dimethyl-1-oxobutan-2-yl)-1H-1,2,3-triazol-4-yl)nonanoyl)-6-oxodeca-hydropyrrolo[1,2-a][1,5]diazocin-5-yl)carbamoyl)-1H-indole-5-carbonyl)phosphonic acid]
DC50 (STAT3): > 1000 nM | pIC50 (SU-DHL-1 cells): < 6.00 | pIC50 (SUP-M2 cells): < 6.00
